Assay results from ChEMBL document CHEMBL4765275, “Discovery of novel tertiary amide derivatives as NEDDylation pathway activators to inhibit the tumor progression in vitro and in vivo” (Eur J Med Chem, 2020).

Assays:
Assay type in all cases: functional, cell-based
[1] = system: PC-3; test: Antiproliferative activity against human PC-3 cells measured after 48 hrs by MTT assay; details: PC-3, 48 h
[2] = system: MCF7; test: Antiproliferative activity against human MCF7 cells measured after 48 hrs by MTT assay; details: MCF7, 48 h
[3] = system: MGC-803; test: Antiproliferative activity against human MGC-803 cells measured after 48 hrs by MTT assay; details: MGC-803, 48 h

SMILES	IC50 [1] [µM]	IC50 [2] [µM]	IC50 [3] [µM]
COc1ccc(CN(C(=O)Cc2ccc(C)cc2C)c2cc(OC)c(OC)c(OC)c2)cc1	52.8	69.4	28.7
COc1ccc(CN(C(=O)COc2ccc(OC)cc2)c2cc(OC)c(OC)c(OC)c2)cc1	66.4	46.4	6.27
COc1cc(N(Cc2ccc(Br)cc2)C(=O)Cc2cccs2)cc(OC)c1OC	7.68	6.43	5.32
COc1ccc(CN(C(=O)COc2cc(OC)c(OC)c(OC)c2)c2cc(OC)c(OC)c(OC)c2)cc1	> 80	40.7	31.2
COc1cc(N(Cc2cccc(F)c2)C(=O)Cc2cccs2)cc(OC)c1OC	21.4	27.3	13.1
COc1ccc(CN(C(=O)Cc2cccs2)c2ccc(OC)c(OC)c2)cc1	> 80	> 80	> 80
COc1ccc(CN(C(=O)Cc2cccs2)c2ccccc2)cc1	> 80	> 80	> 80
COc1cc(N(Cc2ccc(Cl)cc2)C(=O)Cc2cccs2)cc(OC)c1OC	19.3	8.78	14.3
COc1ccc(CN(C(=O)Cc2cccc(OC)c2)c2cc(OC)c(OC)c(OC)c2)cc1	3.04	1.33	1.06
O=c1[nH]cc(F)c(=O)[nH]1 [FLUOROURACIL]	17.3		
COc1ccc(CN(C(=O)Cc2ccc(F)cc2)c2cc(OC)c(OC)c(OC)c2)cc1	2.38	2.52	1.81
COc1ccc(CN(C(=O)C(c2ccccc2)c2ccccc2)c2cc(OC)c(OC)c(OC)c2)cc1	> 80	> 80	> 80
COc1ccc(CN(C(=O)Cc2cccs2)c2ccc(OC)cc2)cc1	> 80	> 80	> 80
COc1cc(N(Cc2ccc(F)cc2)C(=O)Cc2cccs2)cc(OC)c1OC	23.1	50.9	32.6
COc1cc(N(Cc2cccc(Cl)c2)C(=O)Cc2cccs2)cc(OC)c1OC	77.9	42.4	37
COc1ccc(CN(C(=O)CSc2ccccn2)c2cc(OC)c(OC)c(OC)c2)cc1		16.1	
COc1cc(N(Cc2ccccc2)C(=O)Cc2cccs2)cc(OC)c1OC	33.9	48.8	22
COc1ccc(CN(C(=O)COc2ccccc2)c2cc(OC)c(OC)c(OC)c2)cc1	19.7	64.1	22.7
COc1ccc(CN(C(=O)Cc2ccccc2)c2cc(OC)c(OC)c(OC)c2)cc1	0.85	2.68	6.82
COc1ccc(CN(C(=O)Cc2cccs2)c2cc(OC)c(OC)c(OC)c2)cc1N	1.65	2.48	0.1
COc1cc(N(Cc2cccc(C)c2)C(=O)Cc2cccs2)cc(OC)c1OC	26.9	42.6	19.7
COc1ccc(CN(C(=O)Cc2cccs2)c2cc(Cl)c(Cl)cc2Cl)cc1	> 80	> 80	> 80
COc1ccc(CN(C(=O)CSc2nc3ccccc3o2)c2cc(OC)c(OC)c(OC)c2)cc1		6.68	
COc1ccc(CN(C(=O)CSc2nncs2)c2cc(OC)c(OC)c(OC)c2)cc1		19.4	
COc1ccc(CN(C(=O)CSc2nnnn2C)c2cc(OC)c(OC)c(OC)c2)cc1		14.4	
COc1cc(N(Cc2ccc(C)cc2)C(=O)Cc2cccs2)cc(OC)c1OC	16.9	1.56	0.84
COc1ccc(CC(=O)N(Cc2ccc(OC)cc2)c2cc(OC)c(OC)c(OC)c2)cc1	1.49	0.18	4.37
COc1cc(N(Cc2ccc(C(C)(C)C)cc2)C(=O)Cc2cccs2)cc(OC)c1OC	13.8	19.4	22.8
COc1ccc(CN(C(=O)COc2cccc(Cl)c2)c2cc(OC)c(OC)c(OC)c2)cc1	30.5	55.2	68.7
